This passage reports Kis, Activity and Ki results from ChEMBL document CHEMBL1132878, “Phosphonamidate and phosphothioate dipeptides as potential inhibitors of VanX” (Bioorg Med Chem Lett, 2000).

The source made the active and inactive calls. The calls are words filed in the database; no cut-off is given here.

Test [1] in a line: Compound was evaluated for inhibition of Van X.
The subject of test [2] is Stenotrophomonas maltophilia. The experiment in a line: Tested for inhibitory activity against metallo-beta-lactamase L1 from Stenotrophomonas maltophilia at compound concentration up to […] at pH 7.0 using nitrocefin as substrate; No inhibition. The class given is functional.
Test [3] is described as follows: Compound was evaluated for inhibition of Van X at pH 7.0.
The nature of test [4]: Compound was evaluated for inhibition of Van X at pH 7.0; No inhibition.

Turning to `CC(C[PH](=O)C(C)N)C(=O)O` (configuration not stated), the Kis in test [1] came out at 0.32 µM. With `CC(NP(=O)(O)C(C)N)C(=O)O` (configuration not stated), the outcome in test [2] was inactive. The same compound returned a Ki in test [3] of 36 µM. Take `CC(OP(=O)(O)C(C)N)C(=O)O` (configuration not stated): the outcome in test [2] was inactive. Further, in test [3], the Ki is 400 µM. `CC(N)P(=O)(O)SCC(=O)O` (configuration not stated): the outcome in test [2] was inactive. For the same compound, the Ki result in test [4] was “Not Active”.

As a reminder, the Ki is a measure of affinity in units of concentration, obtained from inhibition or displacement. Lower therefore signals tighter binding.
